The numbers were not newly measured in publication PMC7774954, “Interactomic affinity profiling by holdup assay: Acetylation and distal residues impact the PDZome-binding specificity of PTEN phosphatase” (PLoS ONE, 2020), which cites them from elsewhere.

In one data set the test system is PTPN13-4 domain. Particulars: cited from earlier work. An excerpt: It has been shown that the binding of the tumor suppressor PTEN, through its PBM, to PDZ dom ...
The next data set addresses SNX27 PDZ 1. Particulars: ITC, read-out: KD (affinity provided in the literature); cited from earlier work. An excerpt:
(§1) Table 1 PDZ domains interactors for PTEN according to literature and the present study. | column: KD ^d

The target of the next data set is PARD3 PDZ 3. Particulars: FP, read-out: KD (affinity provided in the literature); cited from earlier work.
Excerpt: as §1

The target in a further data set is MAST2 PDZ 1. The settings on record: ITC, read-out: KD (affinity provided in the literature); cited from earlier work.
Excerpt: as §1

Where no end group is shown, it is not given here. The star is where a group is joined. Biotin = O=C1N[C@H]2[C@H](CS[C@H]2CCCCC(=O)*)N1; TTDS = NCCCOCCOCCOCCCNC(=O)CCC(=O)*

For “PTEN: PTEN constructs of published studies; phosphatase and tensin homolog deleted on chromosome 10 ({Biotin-TTDS}-DEDQHTQITKV)”, in the data set with PTPN13-4 domain, the “interaction with PTPN13-4 (in words)” value is “absence of interaction”. Besides, the Kd (as a rule, the constant that tells how readily two partners part at equilibrium) is 38 µM on SNX27 PDZ 1, 19 µM at PARD3 PDZ 3 and 2 µM at MAST2 PDZ 1.
